The results in this text go back to US8119669B2, “Substituted phenoxy N-alkylated thiazolidinediones as estrogen related receptor-α modulators” (Janssen Pharmaceutica N.V., priority 2007, dated 2012).

The test has as its target T1, ERR1 (also known as ERR-α or ERR-1) (Homo sapiens, UniProt P11474).
T1 sequence (P11474 193-421 limits assumed): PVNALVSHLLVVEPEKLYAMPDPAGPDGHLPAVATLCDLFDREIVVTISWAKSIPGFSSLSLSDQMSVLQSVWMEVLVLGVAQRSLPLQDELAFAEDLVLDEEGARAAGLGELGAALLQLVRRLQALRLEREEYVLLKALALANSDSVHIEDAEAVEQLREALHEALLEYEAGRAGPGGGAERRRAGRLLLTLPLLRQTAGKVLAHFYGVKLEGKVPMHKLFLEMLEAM
The test is described as follows: TR-FRET Assay (disruption of co-activator peptide binding to ERR1 LBD). It is filed as biochemical. The settings on record: 6His-tagged ERR1 LBD 6 nM, GST-hSRC2 co-activator peptide 6 nM; 25° C., 4-18 hours; average of 3 independent experiments. How it is done:
Time-Resolved Fluorescence Resonance Energy Transfer (TR-FRET) experiments were performed to examine the functional response of ERR1 (also known as ERR-α or ERR-1) ligands. The TR-FRET assay described herein relied on the conformation of ERR1 for binding to a co-activator peptide: when a test compound binds to ERR1 and alters its conformation, it can disrupt the binding of the co-activator peptide. The components of this homogeneous secondary assay included: the ^6His-tagged-ERR1LBD, a GST-labeled-hSRC2 co-activator polypeptide and a fluorescent donor/acceptor pair from CIS bio international htrf/bioassays (Bedford, Mass.) using both an α-GST Europium Cryptate (Eu) label and an α^6His-XL665 (allophycocyanin) fluorophore.
For TR-FRET measurements, the reaction was buffered in 25 mM Tris pH 8, 2.5 mM Hepes, 20 mM KCl, 1 mM DTT, and 0.05 mg/mL BSA (-lipids). The final concentrations of reagents were 6 nM of ERR1LBD, 6 nM GST-SRC-2 peptide, 30 nM Eu cryptate, and 7.5 nM XL665. Reactions were allowed to reach equilibrium at 25° C. for 4-18 hours before collecting data on the Analyst from LJL Biosystems (Molecular Devices Sunnyvale, Calif.). As a time-resolved method, the samples were excited at […] and emission was collected for 1 ms at both 615 and 665 nm with delays of 400 and 75 μs, respectively. Dose response curves were fitted using a hyperbolic equation and the data reported is the average of 3 independent experiments.

Broadly, the EC50 is the concentration that produces a half-maximal response. A higher EC50 goes with a less potent agent. Compound `COc1cc(/C=C2\SC(=O)N(CCN3CCOCC3)C2=O)ccc1Oc1ccc(C#N)cc1C(F)(F)F` [Compound 1, 4-{2-Methoxy-4-[3-(2-morpholin-4-yl-ethyl)-2,4-dioxo-thiazolidin-5-ylidenemethyl]-phenoxy}-3-trifluoromethyl-benzonitrile] yielded an EC50 of 20 nM.

Compound `COc1cc(/C=C2\SC(=O)N(CCN(C)C)C2=O)ccc1Oc1ccc(C#N)cc1C(F)(F)F` [Compound 2, 4-{4-[3-(2-Dimethylamino-ethyl)-2,4-dioxo-thiazolidin-5-ylidenemethyl]-2-methoxy-phenoxy}-3-trifluoromethyl-benzonitrile] showed an EC50 of 39 nM. Take `COc1cc(/C=C2\SC(=O)N(CCN3CCCC3)C2=O)ccc1Oc1ccc(C#N)cc1C(F)(F)F` [Compound 3, 4-{4-[2,4-Dioxo-3-(2-pyrrolidin-1-yl-ethyl)-thiazolidin-5-ylidenemethyl]-2-methoxy-phenoxy}-3-trifluoromethyl-benzonitrile]: a half-maximal effect (EC50) was put at 42 nM. The compound `COc1cc(/C=C2\SC(=O)N(CCN3CCN(C)CC3)C2=O)ccc1Oc1ccc(C#N)cc1C(F)(F)F` [Compound 4, 4-(2-Methoxy-4-{3-[2-(4-methyl-piperazin-1-yl)-ethyl]-2,4-dioxo-thiazolidin-5-ylidenemethyl}-phenoxy)-3-trifluoromethyl-benzonitrile] registered a concentration giving a half-maximal response (EC50) of 320 nM. Take `CN(C)CCN1C(=O)S/C(=C\c2ccc(Oc3ccc(C#N)cc3C(F)(F)F)c(F)c2)C1=O` [Compound 5, 4-{4-[3-(2-Dimethylamino-ethyl)-2,4-dioxo-thiazolidin-5-ylidenemethyl]-2-fluoro-phenoxy}-3-trifluoromethyl-benzonitrile]: the EC50 is 360 nM. As for `N#Cc1ccc(Oc2ccc(/C=C3\SC(=O)N(CCN4CCOCC4)C3=O)cc2F)c(C(F)(F)F)c1` [Compound 6, 4-{2-Fluoro-4-[3-(2-morpholin-4-yl-ethyl)-2,4-dioxo-thiazolidin-5-ylidenemethyl]-phenoxy}-3-trifluoromethyl-benzonitrile], the EC50 came to 320 nM. Compound `CCN(CC)CCN1C(=O)S/C(=C\c2ccc(Oc3ccc(C#N)cc3C(F)(F)F)c(OC)c2)C1=O` [Compound 7, 4-{4-[3-(2-Diethylamino-ethyl)-2,4-dioxo-thiazolidin-5-ylidenemethyl]-2-methoxy-phenoxy}-3-trifluoromethyl-benzonitrile] had an EC50 of 59 nM.

Compound `COc1cc(/C=C2\SC(=O)N(CCn3ccnc3)C2=O)ccc1Oc1ccc(C#N)cc1C(F)(F)F` [Compound 8, 4-{4-[3-(2-Imidazol-1-yl-ethyl)-2,4-dioxo-thiazolidin-5-ylidenemethyl]-2-methoxy-phenoxy}-3-trifluoromethyl-benzonitrile] returned an EC50 of 32 nM.

`COc1cc(/C=C2\SC(=O)N(CCN3CCCCC3)C2=O)ccc1Oc1ccc(C#N)cc1C(F)(F)F` [Compound 9, 4-{4-[2,4-Dioxo-3-(2-piperidin-1-yl-ethyl)-thiazolidin-5-ylidenemethyl]-2-methoxy-phenoxy}-3-trifluoromethyl-benzonitrile] registered a half-maximal effective concentration (EC50) of 33 nM. In the case of `COc1cc(/C=C2\SC(=O)N(CCn3cccn3)C2=O)ccc1Oc1ccc(C#N)cc1C(F)(F)F` [Compound 10, 4-{4-[2,4-Dioxo-3-(2-pyrazol-1-yl-ethyl)-thiazolidin-5-ylidenemethyl]-2-methoxy-phenoxy}-3-trifluoromethyl-benzonitrile], the concentration giving a half-maximal response (EC50) turned out to be 59 nM. The same measure for `COc1cc(/C=C2\SC(=O)N(CCn3cncn3)C2=O)ccc1Oc1ccc(C#N)cc1C(F)(F)F` [Compound 11, 4-{4-[2,4-Dioxo-3-(2-[1,2,4]triazol-1-yl-ethyl)-thiazolidin-5-ylidenemethyl]-2-methoxy-phenoxy}-3-trifluoromethyl-benzonitrile]: 24 nM; for `COc1cc(/C=C2\SC(=O)N(CCN3CCCCCC3)C2=O)ccc1Oc1ccc(C#N)cc1C(F)(F)F` [Compound 12, 4-{4-[3-(2-Azepan-1-yl-ethyl)-2,4-dioxo-thiazolidin-5-ylidenemethyl]-2-methoxy-phenoxy}-3-trifluoromethyl-benzonitrile]: 44 nM. `COc1cc(/C=C2\SC(=O)N(CCn3cccc3)C2=O)ccc1Oc1ccc(C#N)cc1C(F)(F)F` [Compound 13, 4-{4-[2,4-Dioxo-3-(2-pyrrol-1-yl-ethyl)-thiazolidin-5-ylidenemethyl]-2-methoxy-phenoxy}-3-trifluoromethyl-benzonitrile] came in with an EC50 of 86 nM. As for `N#Cc1ccc(Oc2ccc(/C=C3\SC(=O)N(CCN4CCCC4)C3=O)cc2F)c(C(F)(F)F)c1` [Compound 14, 4-{4-[2,4-Dioxo-3-(2-pyrrolidin-1-yl-ethyl)-thiazolidin-5-ylidenemethyl]-2-fluoro-phenoxy}-3-trifluoromethyl-benzonitrile], it took 230 nM to reach a half-maximal effect (EC50).
